Test results: ChEMBL document CHEMBL4431373, “Investigation of Proposed Activity of Clarithromycin at GABAA Receptors Using [(11)C]Flumazenil PET” (ACS Med Chem Lett, 2016)
Calls of active or inactive are those of the source. The calls are words filed in the database; no cut-off is given here.

Experiments:
Rhesus monkey [1] = test: In vivo displacement of [11C]FMZ from rhesus monkey GABA-A receptor at 0.5 mg/kg, iv after 50 to 90 mins by PET analysis; format: functional, organism-based; conditions: Macaca mulatta
[2] = biological target: T1, GABA-A receptor; anion channel (Homo sapiens) (UniProt P14867+P47870+P18507+P28472+P48169+Q99928+Q9UN88+P34903+O00591+O14764+Q8N1C3+P18505+P78334+P47869+P31644+Q16445); test: Negative allosteric modulation of GABA-A receptor (unknown origin) at 3 uM by whole cell patch clamp assay
[3] = biological target: T1, GABA-A receptor; anion channel (Homo sapiens); test: Negative allosteric modulation of GABA-A receptor (unknown origin) at 300 uM by whole cell patch clamp assay
[4] = biological target: GABA-A receptor; anion channel; test: Displacement of [3H]FMZ from GABA-A receptor in rat brain after 30 mins by autoradiography; format: tissue-based
Rhesus monkey [5] = test: In vivo displacement of [11C]FMZ from rhesus monkey GABA-A receptor at 3.5 mg/kg, iv after 50 to 90 mins by PET analysis; format: functional, organism-based; conditions: Macaca mulatta
Rhesus monkey [6] = test: In vivo displacement of [11C]FMZ from rhesus monkey GABA-A receptor at 7 mg/kg, iv after 50 to 90 mins by PET analysis; format: functional, organism-based; conditions: Macaca mulatta
Rhesus monkey [7] = test: In vivo displacement of [11C]FMZ from rhesus monkey GABA-A receptor assessed as late distribution volume ratio to early distribution volume ratio of […] at 3.5 mg/kg, iv by Logan plot analysis (reference value: 115 to 121 %); format: functional, Macaca mulatta
Rhesus monkey [8] = test: In vivo displacement of [11C]FMZ from rhesus monkey GABA-A receptor assessed late distribution volume ratio to early distribution volume ratio of […] at 7 mg/kg, iv by Logan plot analysis (reference value: 115 to 121 %); format: functional, Macaca mulatta
[9] = biological target: GABA-A receptor; anion channel (Rattus norvegicus) (UniProt O09028+P15431+P18506+P18508+P19969+P20236+P23574+P23576+P28471+P28473+P30191+P62813+P63079+P63138+Q91ZM7+Q9ES14); conditions: Brain, 10 uM
Description: Displacement of [3H]FMZ from GABA-A receptor in rat brain at 10 uM preincubated for 30 mins followed by FMZ addition measured up to 16 mins

In the case of `CCOC(=O)c1ncn2c1CN(C)C(=O)c1cc(F)ccc1-2`, the Activity (Rhesus monkey [1]) is reported as “Active”.

Compound `CC[C@H]1OC(=O)[C@H](C)[C@@H](O[C@H]2C[C@@](C)(OC)[C@@H](O)[C@H](C)O2)[C@H](C)[C@@H](O[C@@H]2O[C@H](C)C[C@H](N(C)C)[C@H]2O)[C@](C)(OC)C[C@@H](C)C(=O)[C@H](C)[C@@H](O)[C@]1(C)O` [CLARITHROMYCIN] has an inhibition [2] of 18%, an inhibition [3] of 45% and a Ki [4] greater than 10 µM. The inhibition (Rhesus monkey [5]) was “inactive”, the inhibition (Rhesus monkey [6]) was “inactive” and the Activity (Rhesus monkey [7]) was 108 - 131%. The Activity (Rhesus monkey [8]) was 89 - 186% and the inhibition [9] was “inactive”.
